# Measured values as given in publication PMC11213709, “De novo design of proteins housing excitonically coupled chlorophyll special pairs” (Nature Chemical Biology, 2024).
# pKd: −log10 of the molar value.
# How the values were obtained:
# Assay type in all cases: binding, synthetic construct
# SP3 = target: T1, SP3; assay: CD titration (Kd1 […], Kd2 […]); absorption titration (Kd1 […], Kd2 […]); fluorescence titration ([…])
# T1 construct: de novo designed C2-symmetric homodimer, two ZnPPaM per dimer
# SP1 = target: T2, SP1; assay: X-ray crystal structure at […] Å; absorption titration (Kd1 […], Kd2 […]); fluorescence titration ([…])
# T2 construct: de novo designed C2-symmetric homodimer, two ZnPPaM per dimer
# SP2 = target: T3, SP2; assay: X-ray crystal structure at […] Å; CD titration (Kd1 […], Kd2 […]); absorption titration (Kd1 […], Kd2 […]); fluorescence titration ([…])
# T3 construct: de novo designed C2-symmetric homodimer, two ZnPPaM per dimer
structure (smiles),measurement,setting,value
C=Cc1c(C)c2[n]3c1=CC1=NC(=Cc4c(C)c5c([n]4[Zn]3)C(=C3N=C(C=2)[C@@H](C)[C@@H]3CCC(=O)OC)[C@@H](C(=O)OC)C5=O)C(CC)=C1C [ZnPPaM],pKd,SP3,6.10
same,pKd,SP1,6.54
same,pKd,SP2,6.52
